Measurements: US20260053767A1, “Hepatoprotective Compositions And Methods” (Jemyll, Ltd., priority 2022, published 2026)

Experiments:
[1] = test system: Wistar rats; assay: Glucose challenge test and body weight in rats on high fat/high cholesterol diet, water with DDA at 1% of caloric intake; format: in vivo
From the text: (§1) Animal Studies. All in vivo studies used Wistar rats that were kept for 9 weeks on a high fat/high cholesterol diet. The animals were then separated into two groups, a control group that continued the high fat/high cholesterol diet with regular water, whereas the treatment group continued the high fat/high cholesterol diet with water containing DDA (dodecanedioic acid) in an amount of 1% of the caloric intake. After all animals were separated in the respective test groups, body weights were recorded, and a glucose challenge test administered. […] Such effect is particularly unexpected as the quantity of DDA in the food was well below any quantity that was reasonably expected.

[2] = test system: Wistar rats; assay: Liver histology (H&E, red oil ORO, Sirius red) in rats on high fat/high cholesterol diet with or without DDA; format: in vivo
From the text: as §1
While not wishing to be bound by any specific theory or hypothesis, the inventors contemplate that the DDA at the low levels inhibits the trans-differentiation of hepatic stellate cells to myofibroblasts that produce extracellular matrix proteins (including collagen), likely by protecting them from damage due to reactive oxygen species (ROS).

[3] = test system: SIRT enzymes; assay: Global SIRT activity in liver cells; format: cell-based; details: AML-12 liver cells
From the text: (§2) To that end, the inventors used endothelial cells (EOMA cells) and liver cells (AML-12 cells) in vitro and quantified various markers in response to exposure of the cells to environmental challenge in the presence and absence of DDA at low concentrations. Unless indicated otherwise, the DDA concentration in the in vitro experiments was 5 mcg per microliter. More specifically, the inventors measured p-H2AX protein levels as a marker for DNA damage, PGC-1α protein levels as a marker for mitochondrial biogenesis, NAMPT enzyme levels as a marker for potential for NAD+ production, and total antioxidant capacity as a marker of cellular health. In addition, the inventors also measured global SIRT activity as a gauge of activity for all SIRT enzymes, and in particular SIRT1 enzyme levels as markers for autophagy and various beneficial processes associated with a caloric restricted diet, and SIRT3 levels as markers for mitochondrial function and longevity.
In still further experiments, the liver cells were also tested for global SIRT activity and exemplary results are shown in FIG. 6.

[4] = test system: PGC-1α; assay: PGC-1α protein levels in liver cells (marker for mitochondrial biogenesis); format: cell-based; details: AML-12 liver cells
From the text: as §2
The inventors also evaluated activity of DDA on energy metabolism, and particularly on mitochondrial health and/or mitochondrial biogenesis. The protein followed was PGC-1α, a known marker for mitochondrial biogenesis, and exemplary results are depicted in FIG. 7. […] Such finding is not entirely unexpected as PGC-1α is a transcriptional co-activator and as such tightly regulated.

[5] = test system: endothelial cells (EOMA cells); assay: Total antioxidant capacity in endothelial cells; format: cell-based; details: 24 hours, in the presence of hydrogen peroxide, p=0.001
From the text: as §2
(§3) In yet a further series of experiments, the inventors also sought to confirm whether or not DDDA would have a modulatory effect in endothelial cells using the same markers and experimental conditions as noted above.
With respect to antioxidant capacity, FIG. 12 depicts exemplary results. […] N=5-6 plates per treatment.

[6] = test system: NAMPT; assay: NAMPT enzyme levels in endothelial cells; format: cell-based; details: EOMA endothelial cells, 6 hours; p=0.018
From the text: as §2, §3
On the other hand, where endothelial cells were exposed to DDDA, there was a significant difference in NAMPT enzyme levels as is exemplarily depicted in FIG. 15.

[7] = test system: SIRT3; assay: SIRT3 in endothelial cells; format: cell-based; details: EOMA endothelial cells
From the text: as §2, §3
N=5-6 plates per treatment.

[8] = test system: cancer bearing mice; assay: Administration of DDDA to cancer bearing mice; details: mouse, in vivo
From the text: Thus, DDDA in low doses (5 g or less, or 4 g or less, or 3 g, or less, or 2 g or less, or 1 g or less) may be used for chemoprevention of HCC in healthy liver or livers of NASH/NAFLD individuals, presumably due to reduction of chronic subacute inflammation.

For `O=C(O)CCCCCCCCCCC(=O)O` [DDDA, dodecanedioic acid], the “AUC blood glucose in glucose challenge” value [1] was “significantly reduced”, the “blood glucose spike in glucose challenge” value [1] was “significantly blunted” and the “liver tissue morphology under H&E stain” value ([2]; high fat/high cholesterol diet with DDA vs without) was “significantly closer to normal liver histology”. For the same compound, the “fatty deposits in liver tissue, red oil (ORO) stain” value ([2]; high fat/high cholesterol diet with low quantities of DDA) was “normal or near-normal microscopic appearance”, the “fibrosis (Sirius red, hepatic collagen): rats without DDA compared to rats with DDA” value ([2]; high fat/high cholesterol diet, DDA at low concentrations) was “significantly increased fibrosis as compared to those rats where the diet included DDA at low concentrations” and the “hepatoprotective effect (histopathology, overall)” value ([2]; low concentration of DDA in high fat/high cholesterol diet) was “substantial hepatoprotective effect”. For the same compound, the “global SIRT activity” value ([3]; 6 hours, in the presence of hydrogen peroxide, p<0.001) was “increased global SIRT activity in a statistically significant manner”, the “global SIRT activity” value ([3]; 24 hours, no hydrogen peroxide, same trend, p=0.065) was “did not reach a level of significance” and the PGC-1α levels ([4]; 6 hours, p=0.001) was “increased PGC1α levels”. For the same compound, the PGC-1α levels ([4]; 24 hours, pattern relative to 6 hours) was “paradoxically reversed”, the “cellular total antioxidant capacity” value [5] was “maintained” and the NAMPT enzyme levels [6] was “increased NAMPT enzyme levels”. For the same compound, the SIRT3 ([7]; 24 hours) was “significant decline”, the SIRT3 ([7]; acute (6-hour data)) was “strong and acute increase” and the “effect in cancer bearing mice” value [8] was “helpful for liver blastomas and potentially NASH associated carcinomas”.
